Source: patent publication US8952024B2, “Herbicidal pyrimidone derivatives” (E I du Pont de Nemours and Company, priority 2009, dated 2015)

Columns and labels:
Assay type in all cases: in vivo
[1] = test system: barnyardgrass (Echinochloa crus-galli); assay: Test A pre-/postemergence plant response
Description: (§1) Seeds of barnyardgrass (Echinochloa crus-galli), large crabgrass (Digitaria sanguinalis), giant foxtail (Setaria faberii), morningglory (Ipomoea spp.), pigweed (Amaranthus retroflexus), velvetleaf (Abutilon theophrasti), wheat (Triticum aestivum) and corn (Zea mays) were planted into a blend of loam soil and sand and treated preemergence with a directed soil spray using test chemicals formulated in a non-phytotoxic solvent mixture which included a surfactant. At the same time these species were also treated with postemergence applications of test compounds formulated in the same manner.
(§2) Plants ranged in height from two to ten cm and were in the one- to two-leaf stage for the postemergence treatment. Treated plants and untreated controls were maintained in a greenhouse for approximately ten days, after which time all treated plants were compared to untreated controls and visually evaluated for injury. Plant response ratings, summarized in Table A, are based on a 0 to 100 scale where 0 is no effect and 100 is complete control. A dash (-) response means no test result.

corn (Zea mays) = assay: Test A pre-/postemergence plant response
Description: as §1, §2

[2] = test system: giant foxtail (Setaria faberii); assay: Test A pre-/postemergence plant response
Description: as §1, §2

[3] = test system: large crabgrass (Digitaria sanguinalis); assay: Test A pre-/postemergence plant response
Description: as §1, §2

[4] = test system: morningglory (Ipomoea spp.); assay: Test A pre-/postemergence plant response
Description: as §1, §2

[5] = test system: pigweed (Amaranthus retroflexus); assay: Test A pre-/postemergence plant response
Description: as §1, §2

[6] = test system: velvetleaf (Abutilon theophrasti); assay: Test A pre-/postemergence plant response
Description: as §1, §2

[7] = test system: wheat (Triticum aestivum); assay: Test A pre-/postemergence plant response
Description: as §1, §2

[8] = test system: barnyardgrass (Echinochloa crus-galli); assay: Test B flooded paddy test; details: for Plant response rating, Flood, Barnyardgrass: 250 g ai/ha, flooded paddy test, visual rating on 0 to 100 scale (0 no effect, 100 complete control) after 13 to 15 days; for Plant response rating, Barnyardgrass: Flood (flooded paddy test), 13 to 15 days
Description: (§3) Plant species in the flooded paddy test consisted of rice (Oryza sativa), umbrella sedge (Cyperus difformis), ducksalad (Heteranthera limosa) and barnyardgrass (Echinochloa crus-galli) grown to the 2-leaf stage for testing. At the time of treatment, test pots were flooded with water to 3 cm above the soil surface, treated by application of test compounds directly to the paddy water, and then maintained at that water depth for the duration of the test.
(§4) Treated plants and controls were maintained in a greenhouse for 13 to 15 days, after which time all treated plants were visually evaluated and compared to controls. Plant response ratings, summarized in Table B, are based on a scale of 0 to 100 where 0 is no effect and 100 is complete control. A dash (-) response means no test result.

[9] = test system: ducksalad (Heteranthera limosa); assay: Test B flooded paddy test; details: for Plant response rating, Flood, Ducksalad: 250 g ai/ha, flooded paddy test, visual rating on 0 to 100 scale (0 no effect, 100 complete control) after 13 to 15 days; for Plant response rating, Ducksalad: Flood (flooded paddy test), 13 to 15 days
Description: as §3, §4

rice (Oryza sativa) = assay: Test B flooded paddy test; details: for Plant response rating, Flood, Rice: 250 g ai/ha, flooded paddy test, visual rating on 0 to 100 scale (0 no effect, 100 complete control) after 13 to 15 days; for Plant response rating, Rice: Flood (flooded paddy test), 13 to 15 days
Description: as §3, §4

[10] = test system: umbrella sedge (Cyperus difformis); assay: Test B flooded paddy test; details: for Plant response rating, Flood, Sedge, Umbrella: 250 g ai/ha, flooded paddy test, visual rating on 0 to 100 scale (0 no effect, 100 complete control) after 13 to 15 days; for Plant response rating, Sedge, Umbrella: Flood (flooded paddy test), 13 to 15 days
Description: as §3, §4

[11] = Postemergence, 125 g ai/ha, visual injury, 0 to 100 scale (0 no effect, 100 complete control), approx. ten days
[12] = Postemergence, 500 g ai/ha, 0 to 100 scale, 0 = no effect, 100 = complete control, approx. ten days
[13] = Preemergence, 125 g ai/ha, 0 to 100 scale, 0 = no effect, 100 = complete control
[14] = Preemergence, 500 g ai/ha, visual injury, 0 to 100 scale (0 no effect, 100 complete control), approx. ten days
[15] = 31 g ai/ha, scale of 0 to 100 where 0 is no effect and 100 is complete control
[16] = 62 g ai/ha, scale 0 to 100, 0 is no effect, 100 is complete control
[17] = 125 g ai/ha, scale 0 to 100, 0 is no effect, 100 is complete control

O=C1CCCC(O)=C1C(=O)c1cnc(-c2ccccc2)n(-c2cccc(F)c2)c1=O [Compound 22]
Barnyardgrass plant response rating [1, 11]: 10 | Plant response rating, Barnyardgrass [1, 12]: 70 | Plant response rating, Barnyardgrass [1, 13]: 10 | Plant response rating, Barnyardgrass [1, 14]: 100 | Corn plant response rating (corn (Zea mays); [11]): 0 | Plant response rating, Corn (corn (Zea mays); [12]): 40 | Plant response rating, Corn (corn (Zea mays); [13]): 0 | Plant response rating, Corn (corn (Zea mays); [14]): 0 | Foxtail, Giant plant response rating [2, 11]: 30 | Plant response rating, Foxtail, Giant [2, 12]: 80 | Plant response rating, Foxtail, Giant [2, 13]: 20 | Plant response rating, Foxtail, Giant [2, 14]: 80 | Crabgrass, Large plant response rating [3, 11]: 40 | Plant response rating, Crabgrass, Large [3, 12]: 80 | Plant response rating, Crabgrass, Large [3, 13]: 40 | Plant response rating, Crabgrass, Large [3, 14]: 90 | Morningglory plant response rating [4, 11]: 30 | Plant response rating, Morningglory [4, 12]: 100 | Plant response rating, Morningglory [4, 13]: 20 | Plant response rating, Morningglory [4, 14]: 70 | Pigweed plant response rating [5, 11]: 80 | Plant response rating, Pigweed [5, 12]: 100 | Plant response rating, Pigweed [5, 13]: 70 | Plant response rating, Pigweed [5, 14]: 90 | Velvetleaf plant response rating [6, 11]: 100 | Plant response rating, Velvetleaf [6, 12]: 100 | Plant response rating, Velvetleaf [6, 13]: 30 | Plant response rating, Velvetleaf [6, 14]: 100 | Wheat plant response rating [7, 11]: 0 | Plant response rating, Wheat [7, 12]: 0 | Plant response rating, Wheat [7, 13]: 0 | Plant response rating, Wheat [7, 14]: 0 | Plant response rating, Flood, Barnyardgrass [8]: 0 | Plant response rating, Barnyardgrass [8, 15]: 0 | Plant response rating, Barnyardgrass [8, 16]: 0 | Plant response rating, Barnyardgrass [8, 17]: 0 | Plant response rating, Flood, Ducksalad [9]: 60 | Plant response rating, Ducksalad [9, 15]: 0 | Plant response rating, Ducksalad [9, 16]: 20 | Plant response rating, Ducksalad [9, 17]: 30 | Plant response rating, Flood, Rice (rice (Oryza sativa)): 0 | Plant response rating, Rice (rice (Oryza sativa); [15]): 0 | Plant response rating, Rice (rice (Oryza sativa); [16]): 0 | Plant response rating, Rice (rice (Oryza sativa); [17]): 0 | Plant response rating, Flood, Sedge, Umbrella [10]: 65 | Plant response rating, Sedge, Umbrella [10, 15]: 0 | Plant response rating, Sedge, Umbrella [10, 16]: 30 | Plant response rating, Sedge, Umbrella [10, 17]: 40

C=CCn1c(-c2ccccc2)ncc(C(=O)C2=C(O)CCCC2=O)c1=O [Compound 23]
Barnyardgrass plant response rating [1, 11]: 10 | Plant response rating, Barnyardgrass [1, 12]: 60 | Plant response rating, Barnyardgrass [1, 13]: 0 | Plant response rating, Barnyardgrass [1, 14]: 70 | Corn plant response rating (corn (Zea mays); [11]): 0 | Plant response rating, Corn (corn (Zea mays); [12]): 0 | Plant response rating, Corn (corn (Zea mays); [13]): 0 | Plant response rating, Corn (corn (Zea mays); [14]): 0 | Foxtail, Giant plant response rating [2, 11]: 10 | Plant response rating, Foxtail, Giant [2, 12]: 50 | Plant response rating, Foxtail, Giant [2, 13]: 0 | Plant response rating, Foxtail, Giant [2, 14]: 20 | Crabgrass, Large plant response rating [3, 11]: 30 | Plant response rating, Crabgrass, Large [3, 12]: 60 | Plant response rating, Crabgrass, Large [3, 13]: 10 | Plant response rating, Crabgrass, Large [3, 14]: 90 | Morningglory plant response rating [4, 11]: 50 | Plant response rating, Morningglory [4, 12]: 100 | Plant response rating, Morningglory [4, 13]: 0 | Plant response rating, Morningglory [4, 14]: 70 | Pigweed plant response rating [5, 11]: 80 | Plant response rating, Pigweed [5, 12]: 100 | Plant response rating, Pigweed [5, 13]: 50 | Plant response rating, Pigweed [5, 14]: 70 | Velvetleaf plant response rating [6, 11]: 100 | Plant response rating, Velvetleaf [6, 12]: 100 | Plant response rating, Velvetleaf [6, 13]: 40 | Plant response rating, Velvetleaf [6, 14]: 100 | Wheat plant response rating [7, 11]: 0 | Plant response rating, Wheat [7, 12]: 0 | Plant response rating, Wheat [7, 13]: 0 | Plant response rating, Wheat [7, 14]: 0 | Plant response rating, Flood, Barnyardgrass [8]: 0 | Plant response rating, Barnyardgrass [8, 15]: 0 | Plant response rating, Barnyardgrass [8, 16]: 0 | Plant response rating, Barnyardgrass [8, 17]: 0 | Plant response rating, Flood, Ducksalad [9]: 45 | Plant response rating, Ducksalad [9, 15]: 20 | Plant response rating, Ducksalad [9, 16]: 35 | Plant response rating, Ducksalad [9, 17]: 45 | Plant response rating, Flood, Rice (rice (Oryza sativa)): 15 | Plant response rating, Rice (rice (Oryza sativa); [15]): 0 | Plant response rating, Rice (rice (Oryza sativa); [16]): 0 | Plant response rating, Rice (rice (Oryza sativa); [17]): 0 | Plant response rating, Flood, Sedge, Umbrella [10]: 45 | Plant response rating, Sedge, Umbrella [10, 15]: 20 | Plant response rating, Sedge, Umbrella [10, 16]: 30 | Plant response rating, Sedge, Umbrella [10, 17]: 40
